The IC50 is the concentration that gives 50% inhibition. A word on the viability, T/C: it is the ratio of treated to control.

A value given as a limit tells only on which side of the number the result lay.
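For viability, T/C in this document: spheroids exposed to drugs for seven days before readout.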

One assay relates to 843126-344-R-J1-PDC complex spheroid viability. Put plainly: Anticancer human tumor 843126-344-R-J1-PDC patient-derived melanoma cell line growth inhibition [POLQ]. Conditions: curve of first compound; second compound 0.0316 µM. The gist of the method: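 Complex spheroid viability model combining PDC tumour cells with endothelial (HUVEC) and MSC stromal cells. Novobiocin, ART-558 or RP6685 were tested singly and in combination with standard and investigational anticancer drugs. Each was titrated in half-log steps from near clinical Cmax, or from 10 microM where Cmax was unknown.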
In the case of `C=CCn1c(=O)c2cnc(Nc3ccc(N4CCN(C)CC4)cc3)nc2n1-c1cccc(C(C)(C)O)n1` + Cc1cccc(N(C)C(=O)C2C(O)CCN2c2nc(C)cc(C(F)(F)F)c2C#N)c1, the IC50 is more than 1000 nM.
On the same count and under the same terms, the result for `CCc1c2c(nc3ccc(O)cc13)-c1cc3c(c(=O)n1C2)COC(=O)[C@]3(O)CC` + Cc1cccc(N(C)C(=O)C2C(O)CCN2c2nc(C)cc(C(F)(F)F)c2C#N)c1 reads 991 nM; that for `O=C(c1cc(Cc2n[nH]c(=O)c3ccccc23)ccc1F)N1CCN(C(=O)C2CC2)CC1` + Cc1cccc(N(C)C(=O)C2C(O)CCN2c2nc(C)cc(C(F)(F)F)c2C#N)c1, more than 10000 nM; that for `O=c1[nH]cc(F)c(=O)[nH]1` + Cc1cccc(N(C)C(=O)C2C(O)CCN2c2nc(C)cc(C(F)(F)F)c2C#N)c1, more than 10000 nM.

Staying with this assay, now noted: curve of first compound; second compound 0.1 µM.
`C=CCn1c(=O)c2cnc(Nc3ccc(N4CCN(C)CC4)cc3)nc2n1-c1cccc(C(C)(C)O)n1` + Cc1cccc(N(C)C(=O)C2C(O)CCN2c2nc(C)cc(C(F)(F)F)c2C#N)c1: the IC50 was more than 1000 nM.
On to `CCc1c2c(nc3ccc(O)cc13)-c1cc3c(c(=O)n1C2)COC(=O)[C@]3(O)CC` + Cc1cccc(N(C)C(=O)C2C(O)CCN2c2nc(C)cc(C(F)(F)F)c2C#N)c1, for which the IC50 amounted to 749 nM.
On the same count and under the same terms, the result for `O=C(c1cc(Cc2n[nH]c(=O)c3ccccc23)ccc1F)N1CCN(C(=O)C2CC2)CC1` + Cc1cccc(N(C)C(=O)C2C(O)CCN2c2nc(C)cc(C(F)(F)F)c2C#N)c1 reads more than 10000 nM.
On the same count and under the same terms, the result for `O=c1[nH]cc(F)c(=O)[nH]1` + Cc1cccc(N(C)C(=O)C2C(O)CCN2c2nc(C)cc(C(F)(F)F)c2C#N)c1 reads more than 10000 nM.

The assay is the same for the next values; noted with them: curve of first compound; second compound 0.316 µM.
Regarding `C=CCn1c(=O)c2cnc(Nc3ccc(N4CCN(C)CC4)cc3)nc2n1-c1cccc(C(C)(C)O)n1` + Cc1cccc(N(C)C(=O)C2C(O)CCN2c2nc(C)cc(C(F)(F)F)c2C#N)c1, the half-maximal inhibitory concentration (IC50) is more than 1000 nM.
The same measure, in the same setting: then `CCc1c2c(nc3ccc(O)cc13)-c1cc3c(c(=O)n1C2)COC(=O)[C@]3(O)CC` + Cc1cccc(N(C)C(=O)C2C(O)CCN2c2nc(C)cc(C(F)(F)F)c2C#N)c1, with 400 nM.
On the same count and under the same terms, the result for `O=C(c1cc(Cc2n[nH]c(=O)c3ccccc23)ccc1F)N1CCN(C(=O)C2CC2)CC1` + Cc1cccc(N(C)C(=O)C2C(O)CCN2c2nc(C)cc(C(F)(F)F)c2C#N)c1 reads more than 10000 nM; that for `O=c1[nH]cc(F)c(=O)[nH]1` + Cc1cccc(N(C)C(=O)C2C(O)CCN2c2nc(C)cc(C(F)(F)F)c2C#N)c1, more than 10000 nM.

The assay is the same for the next values; noted with them: curve of first compound; second compound 1 µM.
In the case of `C=CCn1c(=O)c2cnc(Nc3ccc(N4CCN(C)CC4)cc3)nc2n1-c1cccc(C(C)(C)O)n1` + Cc1cccc(N(C)C(=O)C2C(O)CCN2c2nc(C)cc(C(F)(F)F)c2C#N)c1, the IC50 is more than 1000 nM.
Still for that read-out and setting: the result for `CCc1c2c(nc3ccc(O)cc13)-c1cc3c(c(=O)n1C2)COC(=O)[C@]3(O)CC` + Cc1cccc(N(C)C(=O)C2C(O)CCN2c2nc(C)cc(C(F)(F)F)c2C#N)c1 reads more than 1000 nM; that for `O=C(c1cc(Cc2n[nH]c(=O)c3ccccc23)ccc1F)N1CCN(C(=O)C2CC2)CC1` + Cc1cccc(N(C)C(=O)C2C(O)CCN2c2nc(C)cc(C(F)(F)F)c2C#N)c1, more than 10000 nM.
Consider `O=c1[nH]cc(F)c(=O)[nH]1` + Cc1cccc(N(C)C(=O)C2C(O)CCN2c2nc(C)cc(C(F)(F)F)c2C#N)c1, for which the IC50 was more than 10000 nM.

The assay is the same for the next values; noted with them: curve of first compound; second compound 3.16 µM.
Consider `C=CCn1c(=O)c2cnc(Nc3ccc(N4CCN(C)CC4)cc3)nc2n1-c1cccc(C(C)(C)O)n1` + Cc1cccc(N(C)C(=O)C2C(O)CCN2c2nc(C)cc(C(F)(F)F)c2C#N)c1, for which the IC50 is more than 1000 nM.
The same measure, in the same setting: then `CCc1c2c(nc3ccc(O)cc13)-c1cc3c(c(=O)n1C2)COC(=O)[C@]3(O)CC` + Cc1cccc(N(C)C(=O)C2C(O)CCN2c2nc(C)cc(C(F)(F)F)c2C#N)c1, with more than 1000 nM; and `O=C(c1cc(Cc2n[nH]c(=O)c3ccccc23)ccc1F)N1CCN(C(=O)C2CC2)CC1` + Cc1cccc(N(C)C(=O)C2C(O)CCN2c2nc(C)cc(C(F)(F)F)c2C#N)c1, with more than 10000 nM.
As for `O=c1[nH]cc(F)c(=O)[nH]1` + Cc1cccc(N(C)C(=O)C2C(O)CCN2c2nc(C)cc(C(F)(F)F)c2C#N)c1, the IC50 is more than 10000 nM.

The same assay, now with this note: curve of first compound; second compound 10 µM.
As for `C=CCn1c(=O)c2cnc(Nc3ccc(N4CCN(C)CC4)cc3)nc2n1-c1cccc(C(C)(C)O)n1` + Cc1cccc(N(C)C(=O)C2C(O)CCN2c2nc(C)cc(C(F)(F)F)c2C#N)c1, the concentration for half-maximal inhibition (IC50) is more than 1000 nM.
With `CCc1c2c(nc3ccc(O)cc13)-c1cc3c(c(=O)n1C2)COC(=O)[C@]3(O)CC` + Cc1cccc(N(C)C(=O)C2C(O)CCN2c2nc(C)cc(C(F)(F)F)c2C#N)c1, the IC50 is more than 1000 nM.
Turning to `O=C(c1cc(Cc2n[nH]c(=O)c3ccccc23)ccc1F)N1CCN(C(=O)C2CC2)CC1` + Cc1cccc(N(C)C(=O)C2C(O)CCN2c2nc(C)cc(C(F)(F)F)c2C#N)c1, the IC50 is more than 10000 nM.
The same measure, in the same setting: then `O=c1[nH]cc(F)c(=O)[nH]1` + Cc1cccc(N(C)C(=O)C2C(O)CCN2c2nc(C)cc(C(F)(F)F)c2C#N)c1, with more than 10000 nM.

The same assay, now with this note: second compound 0.0316 µM; first compound 0.00316 µM; stronger effect = lower value.
Turning to `C=CCn1c(=O)c2cnc(Nc3ccc(N4CCN(C)CC4)cc3)nc2n1-c1cccc(C(C)(C)O)n1` + Cc1cccc(N(C)C(=O)C2C(O)CCN2c2nc(C)cc(C(F)(F)F)c2C#N)c1, the viability, T/C was 108%.
The same measure, in the same setting: the result for `CCc1c2c(nc3ccc(O)cc13)-c1cc3c(c(=O)n1C2)COC(=O)[C@]3(O)CC` + Cc1cccc(N(C)C(=O)C2C(O)CCN2c2nc(C)cc(C(F)(F)F)c2C#N)c1 reads 73%.

Staying with this assay, now noted: second compound 0.0316 µM; first compound 0.01 µM; stronger effect = lower value.
For the molecule `C=CCn1c(=O)c2cnc(Nc3ccc(N4CCN(C)CC4)cc3)nc2n1-c1cccc(C(C)(C)O)n1` + Cc1cccc(N(C)C(=O)C2C(O)CCN2c2nc(C)cc(C(F)(F)F)c2C#N)c1, the viability, T/C is 88.7%.
Same read-out and setting: then `CCc1c2c(nc3ccc(O)cc13)-c1cc3c(c(=O)n1C2)COC(=O)[C@]3(O)CC` + Cc1cccc(N(C)C(=O)C2C(O)CCN2c2nc(C)cc(C(F)(F)F)c2C#N)c1, with 52.8%.

The assay is the same for the next values; noted with them: second compound 0.0316 µM; first compound 0.0316 µM; stronger effect = lower value.
Regarding `C=CCn1c(=O)c2cnc(Nc3ccc(N4CCN(C)CC4)cc3)nc2n1-c1cccc(C(C)(C)O)n1` + Cc1cccc(N(C)C(=O)C2C(O)CCN2c2nc(C)cc(C(F)(F)F)c2C#N)c1, the viability, T/C is 95.2%.
Still for that read-out and setting: then `CCc1c2c(nc3ccc(O)cc13)-c1cc3c(c(=O)n1C2)COC(=O)[C@]3(O)CC` + Cc1cccc(N(C)C(=O)C2C(O)CCN2c2nc(C)cc(C(F)(F)F)c2C#N)c1, with 66.4%.
Same read-out and setting: then `O=C(c1cc(Cc2n[nH]c(=O)c3ccccc23)ccc1F)N1CCN(C(=O)C2CC2)CC1` + Cc1cccc(N(C)C(=O)C2C(O)CCN2c2nc(C)cc(C(F)(F)F)c2C#N)c1, with 116%.
For `O=c1[nH]cc(F)c(=O)[nH]1` + Cc1cccc(N(C)C(=O)C2C(O)CCN2c2nc(C)cc(C(F)(F)F)c2C#N)c1, the viability, T/C was 101%.

The assay is the same for the next values; noted with them: second compound 0.0316 µM; first compound 0.1 µM; stronger effect = lower value.
For `C=CCn1c(=O)c2cnc(Nc3ccc(N4CCN(C)CC4)cc3)nc2n1-c1cccc(C(C)(C)O)n1` + Cc1cccc(N(C)C(=O)C2C(O)CCN2c2nc(C)cc(C(F)(F)F)c2C#N)c1, the viability, T/C is 111%.
Still for that read-out and setting: then `CCc1c2c(nc3ccc(O)cc13)-c1cc3c(c(=O)n1C2)COC(=O)[C@]3(O)CC` + Cc1cccc(N(C)C(=O)C2C(O)CCN2c2nc(C)cc(C(F)(F)F)c2C#N)c1, with 67.3%; and `O=C(c1cc(Cc2n[nH]c(=O)c3ccccc23)ccc1F)N1CCN(C(=O)C2CC2)CC1` + Cc1cccc(N(C)C(=O)C2C(O)CCN2c2nc(C)cc(C(F)(F)F)c2C#N)c1, with 99.2%; and `O=c1[nH]cc(F)c(=O)[nH]1` + Cc1cccc(N(C)C(=O)C2C(O)CCN2c2nc(C)cc(C(F)(F)F)c2C#N)c1, with 112%.

The same assay, now with this note: second compound 0.0316 µM; first compound 0.316 µM; stronger effect = lower value.
Consider `C=CCn1c(=O)c2cnc(Nc3ccc(N4CCN(C)CC4)cc3)nc2n1-c1cccc(C(C)(C)O)n1` + Cc1cccc(N(C)C(=O)C2C(O)CCN2c2nc(C)cc(C(F)(F)F)c2C#N)c1, for which the viability, T/C was 105%.
Same read-out and setting: the result for `CCc1c2c(nc3ccc(O)cc13)-c1cc3c(c(=O)n1C2)COC(=O)[C@]3(O)CC` + Cc1cccc(N(C)C(=O)C2C(O)CCN2c2nc(C)cc(C(F)(F)F)c2C#N)c1 reads 54.6%; that for `O=C(c1cc(Cc2n[nH]c(=O)c3ccccc23)ccc1F)N1CCN(C(=O)C2CC2)CC1` + Cc1cccc(N(C)C(=O)C2C(O)CCN2c2nc(C)cc(C(F)(F)F)c2C#N)c1, 84.3%; that for `O=c1[nH]cc(F)c(=O)[nH]1` + Cc1cccc(N(C)C(=O)C2C(O)CCN2c2nc(C)cc(C(F)(F)F)c2C#N)c1, 104%.

Staying with this assay, now noted: second compound 0.0316 µM; first compound 1 µM; stronger effect = lower value.
In the case of `C=CCn1c(=O)c2cnc(Nc3ccc(N4CCN(C)CC4)cc3)nc2n1-c1cccc(C(C)(C)O)n1` + Cc1cccc(N(C)C(=O)C2C(O)CCN2c2nc(C)cc(C(F)(F)F)c2C#N)c1, the viability, T/C was 81.8%.
In the case of `CCc1c2c(nc3ccc(O)cc13)-c1cc3c(c(=O)n1C2)COC(=O)[C@]3(O)CC` + Cc1cccc(N(C)C(=O)C2C(O)CCN2c2nc(C)cc(C(F)(F)F)c2C#N)c1, the viability, T/C was 50.5%.

Values taken from PubChem BioAssay AID1963837 (Molecular Pharmacology Branch, DTP, NCI, 2024).
